According to patent publication US20030152637A1, “Local anesthetic, and method of use” (priority 2001, published 2003):

How the values were obtained:
[1] = In-vitro release of bupivacaine, USP Apparatus 2 Paddle Method, pH 3.0; assay type: physicochemical
Protocol: The in-vitro dissolution range described above may be determined by subjecting the local anesthetic formulation to in-vitro conditions specified by the USP II Paddle Method, 100 RPM, 37 degrees Celsius, pH 3.0 in 900 ml of 10 mM sodium phosphate buffer.
(§1) The in-vitro release of bupivacaine from the microcapsules of Examples 1 and 2 was examined. Dissolution was performed by using USP Apparatus 2 Paddle Method <711>at 100 rpm at 37° C. A 80 mg±3 mg of sample, irrespective of microcapsules formulation, was employed per vessel containing 900 mL of 10 mM Sodium Phosphate Buffer, pH 3.0. The samples (clear solution) were withdrawn at preset time intervals and analyzed for bupivacaine base by HPLC. The HPLC conditions are:
as §1, with “the microspheres” for “the microcapsules”, “Examples 2 (batches 1-4), 2A, 3,” for “Examples 1”, “and 4” for “and 2”, “Method at” for “Method <711>at”, “of microsphere” for “of microcapsules”, “HPLC.” for “HPLC. The HPLC conditions are:”
The in-vitro release of bupivacaine from the microspheres of Examples 2B was examined. Dissolution was performed by using USP Apparatus 2 Paddle Method <711> at 100 rpm at 37° C. A 80 mg±3 mg of sample, irrespective of microsphere formulation, was employed per vessel containing 900 mL of 10 mM Sodium Phosphate Buffer, pH 3.0. The samples (clear solution) were withdrawn at preset time intervals and analyzed for bupivacaine base by HPLC. The following 24 hour dissolution release rates in Table 7B are preferred release rates which were based on batches made in accordance with the formulation of Example 2B (10 Kg scale batches).

[2] = Moore et al. 1976; cited from earlier work

In Vitro Release of Bupivacaine (Cumulative Release %) ([1]; 0.5 h): 96.5%
In Vitro Release of Bupivacaine (Cumulative Release %) ([1]; 1 h): 97.09%
In Vitro Release of Bupivacaine (Cumulative Release %) ([1]; 2 h): 97.035%
In Vitro Release of Bupivacaine (Cumulative Release %) ([1]; 3 h): 97.275%
In Vitro Release of Bupivacaine (Cumulative Release %) ([1]; 4 h): 97.665%
Structure (SMILES): CCCCN1CCCCC1C(=O)Nc1c(C)cccc1C (stereo not drawn) [Bupivacaine base]
plasma bupivacaine level at which systemic toxic reactions are believed to occur [2]: 4000 ng/mL
